Calls of active or inactive are those of the source. No cut-off for these calls is given here.
Columns and labels:
[1] = Cell cycle arrest in mouse B16F10 cells assessed as accumulation at G2/M phase at cytotoxic IC50 after 72 hrs by propidium iodide staining based flow cytometry (reference value: 1.01 +/- 0.13%); format: functional, B16-F10
[2] = tested on: B16-F10; assay: Induction of apoptosis in mouse B16F10 cells assessed as chromatin condensation at cytotoxic IC50 after 72 hrs by Hoechst staining based fluorescence microscopic analysis; format: functional, cell-based
[3] = tested on: HT-29; assay: Induction of apoptosis in human HT-29 cells assessed as loss of nuclear architecture at cytotoxic IC50 after 72 hrs by Hoechst staining based fluorescence microscopic analysis; format: functional, cell-based
[4] = tested on: HepG2; assay: Disruption of mitochondrial membrane potential in human HepG2 cells assessed as rhodamine123 positive cells at cytotoxic IC50 after 72 hrs by propidium iodide staining based fluorescence spectroscopic analysis (reference value: 88.3 +/- 8.87%); format: functional
[5] = tested on: HT-29; assay: Cell cycle arrest in human HT-29 cells assessed as accumulation at S phase at cytotoxic IC50 after 72 hrs by propidium iodide staining based flow cytometry (reference value: 48.31 +/- 1.49%); format: functional
[6] = tested on: B16-F10; assay: Induction of apoptosis in mouse B16F10 cells assessed as cell shrinkage at cytotoxic IC50 after 72 hrs by Hoechst staining based fluorescence microscopic analysis; format: functional
[7] = tested on: HepG2; assay: Induction of apoptosis in human HepG2 cells assessed as live cells at cytotoxic IC50 after 72 hrs by Annexin V-FITC/propidium iodide staining based flow cytometry (reference value: 99.55 +/- 0.07%); format: functional
[8] = tested on: B16-F10; assay: Induction of apoptosis in mouse B16F10 cells assessed as nucleus containing nicked DNA at cytotoxic IC50 after 72 hrs by Hoechst staining based fluorescence microscopic analysis; format: functional, cell-based
[9] = tested on: HT-29; assay: Potency index, ratio of maslinic acid IC50 to compound IC50 for human HT-29 cells; format: functional
[10] = Cytotoxicity against mouse B16F10 cells assessed as growth inhibition after 72 hrs by MTT assay; format: functional, cell-based; conditions: B16-F10, 72 h
[11] = Cell cycle arrest in mouse B16F10 cells assessed as accumulation at G0/G1 phase at cytotoxic IC50 after 72 hrs by propidium iodide staining based flow cytometry (reference value: 50.69 +/- 0.61%); format: functional, B16-F10
[12] = Cell cycle arrest in mouse B16F10 cells assessed as accumulation at S phase at cytotoxic IC50 after 72 hrs by propidium iodide staining based flow cytometry (reference value: 48.31 +/- 0.74%); format: functional, B16-F10
[13] = tested on: HT-29; assay: Induction of apoptosis in human HT-29 cells assessed as bubble shaped region in cell surface at cytotoxic IC50 after 72 hrs by Hoechst staining based fluorescence microscopic analysis; format: functional
[14] = tested on: HT-29; assay: Disruption of mitochondrial membrane potential in human HT-29 cells assessed as rhodamine123 negative cells at cytotoxic IC50 after 72 hrs by propidium iodide staining based fluorescence spectroscopic analysis (reference value: 5.8 +/- 0.42%); format: functional
[15] = tested on: HT-29; assay: Induction of apoptosis in human HT-29 cells assessed as live cells at cytotoxic IC50 after 72 hrs by Annexin V-FITC/propidium iodide staining based flow cytometry (reference value: 96.65 +/- 0.78%); format: functional
[16] = tested on: HepG2; assay: Cell cycle arrest in human HepG2 cells assessed as accumulation at S phase at cytotoxic IC50 after 72 hrs by propidium iodide staining based flow cytometry (reference value: 54.71 +/- 2.37%); format: functional
[17] = tested on: HepG2; assay: Induction of apoptosis in human HepG2 cells assessed as chromatin condensation at cytotoxic IC50 after 72 hrs by Hoechst staining based fluorescence microscopic analysis; format: functional, cell-based
[18] = tested on: HepG2; assay: Cell cycle arrest in human HepG2 cells assessed as accumulation at G2/M phase at cytotoxic IC50 after 72 hrs by propidium iodide staining based flow cytometry (reference value: 8.47 +/- 2.55%); format: functional
[19] = tested on: B16-F10; assay: Induction of apoptosis in mouse B16F10 cells assessed as bubble shaped region in cell surface at cytotoxic IC50 after 72 hrs by Hoechst staining based fluorescence microscopic analysis; format: functional
[20] = tested on: HepG2; assay: Disruption of mitochondrial membrane potential in human HepG2 cells assessed as rhodamine123 negative cells at cytotoxic IC50 after 72 hrs by propidium iodide staining based fluorescence spectroscopic analysis (reference value: 11.7 +/- 6.8%); format: functional
[21] = tested on: HepG2; assay: Induction of apoptosis in human HepG2 cells assessed as cell shrinkage at cytotoxic IC50 after 72 hrs by Hoechst staining based fluorescence microscopic analysis; format: functional
[22] = tested on: HepG2; assay: Cell cycle arrest in human HepG2 cells assessed as accumulation at G0/G1 phase at cytotoxic IC50 after 72 hrs by propidium iodide staining based flow cytometry (reference value: 39.41 +/- 1.56%); format: functional
[23] = tested on: HT-29; assay: Cytotoxicity against human HT-29 cells assessed as growth inhibition after 72 hrs by MTT assay; format: functional, cell-based; conditions: HT-29, 72 h
[24] = tested on: HT-29; assay: Cell cycle arrest in human HT-29 cells assessed as accumulation at G0/G1 phase at cytotoxic IC50 after 72 hrs by propidium iodide staining based flow cytometry (reference value: 55.18 +/- 0.22%); format: functional
[25] = tested on: HepG2; assay: Induction of apoptosis in human HepG2 cells assessed as late apoptotic cells at cytotoxic IC50 after 72 hrs by Annexin V-FITC/propidium iodide staining based flow cytometry relative to control; format: functional
[26] = Disruption of mitochondrial membrane potential in mouse B16F10 cells assessed as rhodamine123 negative cells at cytotoxic IC50 after 72 hrs by propidium iodide staining based fluorescence spectroscopic analysis (reference value: 4.45 +/- 0.64%); format: functional, B16-F10
[27] = tested on: HT-29; assay: Induction of apoptosis in human HT-29 cells assessed as cell shrinkage at cytotoxic IC50 after 72 hrs by Hoechst staining based fluorescence microscopic analysis; format: functional
[28] = tested on: HepG2; assay: Induction of apoptosis in human HepG2 cells assessed as loss of nuclear architecture at cytotoxic IC50 after 72 hrs by Hoechst staining based fluorescence microscopic analysis; format: functional, cell-based
[29] = tested on: B16-F10; assay: Potency index, ratio of maslinic acid IC50 to compound IC50 for mouse B16F10 cells; format: functional
[30] = tested on: HepG2; assay: Induction of apoptosis in human HepG2 cells assessed as spherical cell shape at cytotoxic IC50 after 72 hrs by Hoechst staining based fluorescence microscopic analysis; format: functional
[31] = Induction of apoptosis in mouse B16F10 cells assessed as late apoptotic cells at cytotoxic IC50 after 72 hrs by Annexin V-FITC/propidium iodide staining based flow cytometry (reference value: 0.75 +/- 0.21%); format: functional, B16-F10
[32] = tested on: B16-F10; assay: Induction of apoptosis in mouse B16F10 cells assessed as loss of nuclear architecture at cytotoxic IC50 after 72 hrs by Hoechst staining based fluorescence microscopic analysis; format: functional, cell-based
[33] = tested on: HepG2; assay: Cytotoxicity against human HepG2 cells assessed as growth inhibition after 72 hrs by MTT assay; format: functional, cell-based; conditions: HepG2, 72 h
[34] = tested on: HepG2; assay: Potency index, ratio of maslinic acid IC50 to compound IC50 for human HepG2 cells; format: functional
[35] = tested on: B16-F10; assay: Induction of apoptosis in mouse B16F10 cells assessed as spherical cell shape at cytotoxic IC50 after 72 hrs by Hoechst staining based fluorescence microscopic analysis; format: functional
[36] = tested on: B16-F10; assay: Induction of apoptosis in mouse B16F10 cells assessed as disruption of cell membrane integrity at cytotoxic IC50 after 72 hrs by Hoechst staining based fluorescence microscopic analysis; format: functional

COCCOCCOCC(=O)O[C@@H]1C[C@]2(C)[C@H]3CC=C4[C@@H]5CC(C)(C)CC[C@]5(C(=O)O)CC[C@@]4(C)[C@]3(C)CC[C@H]2C(C)(C)[C@H]1OC(=O)COCCOCCOC
Activity [1]: 0% | Activity [2]: Active | Activity [3]: Active | Activity [4]: 56.7% | Activity [5]: 4.97% | Activity [6]: Active | Activity [7]: 55.7% | Activity [8]: Active | Ratio IC50 [9]: 0.8 | IC50 [10]: 48.4 µM | Activity [11]: 87.93% | Activity [12]: 12.07% | Activity [13]: Active | Activity [14]: 5.7% | Activity [15]: 59.75% | Activity [16]: 26.7% | Activity [17]: Active | Activity [18]: 15.45% | Activity [19]: Active | Activity [20]: 43.2% | Activity [21]: Active | Activity [22]: 58.19% | IC50 [23]: 39.7 µM | Activity [24]: 94.28% | Activity [25]: 29.1% | Activity [26]: 24.9% | Activity [27]: Active | Activity [28]: Active | Ratio IC50 [29]: 0.7 | Activity [30]: Active | Activity [31]: 56.05% | Activity [32]: Active | IC50 [33]: 59.9 µM | Ratio IC50 [34]: 1.7 | Activity [35]: Active | Activity [36]: Active

CC1(C)CC[C@]2(C(=O)NCCCOCCOCCOCCCN)CC[C@]3(C)C(=CC[C@@H]4[C@@]5(C)C[C@@H](O)[C@H](O)C(C)(C)[C@@H]5CC[C@]43C)[C@@H]2C1
Activity [1]: 10.91% | Activity [2]: Active | Activity [3]: Active | Activity [4]: 59.2% | Activity [5]: 7.12% | Activity [6]: Active | Activity [7]: 19.75% | Activity [8]: Active | Ratio IC50 [9]: 2.7 | IC50 [10]: 11.4 µM | Activity [11]: 66.66% | Activity [12]: 22.44% | Activity [13]: Active | Activity [14]: 36.95% | Activity [15]: 61% | Activity [16]: 50.45% | Activity [17]: Active | Activity [18]: 9.34% | Activity [19]: Active | Activity [20]: 40.85% | Activity [21]: Active | Activity [22]: 40.22% | IC50 [23]: 11.8 µM | Activity [24]: 79.78% | Activity [25]: 33.05% | Activity [26]: 51.95% | Activity [27]: Active | Activity [28]: Active | Ratio IC50 [29]: 3.2 | Activity [30]: Active | Activity [31]: 38.65% | Activity [32]: Active | IC50 [33]: 7.68 µM | Ratio IC50 [34]: 12.9 | Activity [35]: Active | Activity [36]: Active
